≈ marks a conversion by molar mass, not a printed value. Read-outs that look alike come from different tables or passages of the source.
What was measured:
[1] = tested on: E. coli DH10B/pTU501 (vector); assay: Broth microdilution MIC, isogenic E. coli empty vector control; type: cell-based; details: Escherichia coli
Protocol: (§1) Genetic constructs used for minimum inhibitory concentration (MIC) testing were designed by Venatorx Pharmaceuticals and codon-optimized for use in E. coli and synthesized by Twist Bioscience as described previously ([9]). […] DH10B cells expressing an empty pET24a(+) vector (Novagen) were also grown, and the plasmid purified. Both pCR4-TOPO-PDC-88 and empty pET24a(+) were cut with BamHI and NdeI, the digests run on low-melting point agarose gels, and the bands of interest excised and ligated to yield a PDC-88 expressing pET24a(+) construct with the His tag removed. The PDC-3 expression construct was created in a similar manner but starting with a previously described pBC SK(−) vector ([42]). The final plasmids were grown in E. coli DH10B cells and purified.
(§2) Modal broth microdilution MICs (or median broth microdilution MICs where appropriate) were determined in accordance with Clinical and Laboratory Standards Institute (CLSI) M07 guidelines ([43]). Isogenic E. coli DH10B cells expressing the abovementioned plasmid-encoded PDC constructs were used. […] CLSI quality control strains Escherichia coli NCTC 13353, E. coli ATCC 35218, and Klebsiella pneumoniae ATCC 700603 were used during testing ([24]).

[2] = tested on: E. coli DH10B/pTU628 (PDC-91); assay: Broth microdilution MIC, isogenic E. coli expressing PDC-91; type: cell-based; details: Escherichia coli
Protocol: as §1, §2

[3] = tested on: E. coli DH10B/pTU625 (PDC-88); assay: Broth microdilution MIC, isogenic E. coli expressing PDC-88; type: cell-based, Escherichia coli; details: for MIC: Escherichia coli
Protocol: as §1, §2

P. aeruginosa isolates = details: 200 well-characterized P. aeruginosa isolates; cited from earlier work
[4] = tested on: E. coli DH10B/pTU609 (PDC-3); assay: Broth microdilution MIC, isogenic E. coli expressing PDC-3; type: cell-based; details: Escherichia coli
Protocol: as §1, §2

[5] = tested on: E. coli DH10B/pTU627 (PDC-90); assay: Broth microdilution MIC, isogenic E. coli expressing PDC-90; type: cell-based; details: Escherichia coli
Protocol: as §1, §2

`CO/N=C(\C(=O)N[C@@H]1C(=O)N2C(C(=O)[O-])=C(C[N+]3(C)CCCC3)CS[C@H]12)c1csc(N)n1` [FEP, cefepime] gave an MIC ([1]; read-out: MIC FEP AVI) of 0.12 µg/mL (≈ 0.25 µM), an MIC ([1]; read-out: MIC FEP Alone) of 0.12 µg/mL (≈ 0.25 µM) and an MIC ([1]; read-out: MIC FEP TAN) of 0.12 µg/mL (≈ 0.25 µM). It also gave an MIC ([1]; read-out: MIC FEP TZB) of 0.12 µg/mL (≈ 0.25 µM), an MIC ([2]; read-out: MIC FEP AVI) of 0.5 µg/mL (≈ 1.04 µM) and an MIC ([2]; read-out: MIC FEP TZB) of 32 µg/mL (≈ 66.6 µM). It also gave an MIC ([2]; E. coli DH10B/pTU628 (PDC-91), FEP with TAN at constant 4 µg/mL, read-out: MIC FEP TAN) of 0.5 µg/mL (≈ 1.04 µM), an MIC ([2]; E. coli DH10B/pTU628 (PDC-91), read-out: MIC FEP Alone) of 32 µg/mL (≈ 66.6 µM) and an MIC ([3]; read-out: MIC FEP AVI) of 0.25 µg/mL (≈ 0.52 µM). It also gave an MIC ([3]; read-out: MIC FEP TZB) of 16 µg/mL (≈ 33.3 µM), an MIC ([3]; E. coli DH10B/pTU625 (PDC-88), FEP with TAN at constant 4 µg/mL, read-out: MIC FEP TAN) of 0.25 µg/mL (≈ 0.52 µM) and an MIC ([3]; E. coli DH10B/pTU625 (PDC-88), read-out: MIC FEP Alone) of 32 µg/mL (≈ 66.6 µM). For the same compound, the “increase of cefepime MIC, PDC-88 compared to PDC-3” value ([3]; {}) was 16 fold, the susceptibility of isolates (P. aeruginosa isolates) was 1.5% and the MIC ([4]; read-out: MIC FEP AVI) was 0.25 µg/mL (≈ 0.52 µM). The MIC ([4]; read-out: MIC FEP TZB) was 2 µg/mL (≈ 4.16 µM), the MIC ([4]; E. coli DH10B/pTU609 (PDC-3), FEP with TAN at constant 4 µg/mL, read-out: MIC FEP TAN) was 0.25 µg/mL (≈ 0.52 µM) and the MIC ([4]; E. coli DH10B/pTU609 (PDC-3), read-out: MIC FEP Alone) was 2 µg/mL (≈ 4.16 µM). It also gave an MIC ([5]; read-out: MIC FEP AVI) of 0.5 µg/mL (≈ 1.04 µM), an MIC ([5]; read-out: MIC FEP TZB) of 32 µg/mL (≈ 66.6 µM) and an MIC ([5]; E. coli DH10B/pTU627 (PDC-90), FEP with TAN at constant 4 µg/mL, * median value reported, read-out: MIC FEP TAN) of 0.5 µg/mL (≈ 1.04 µM). It also gave an MIC ([5]; E. coli DH10B/pTU627 (PDC-90), read-out: MIC FEP Alone) of 64 µg/mL (≈ 133 µM).
